The assay addresses T1, HIV-1 protease (Human immunodeficiency virus type 1 group M subtype B, UniProt P04585).
T1 construct: The protease (or proteinase) enzyme, consisting of only 99 amino acids
Kind of assay: In vitro HIV protease inhibitory assay (fluorescently labeled substrate, avidin-polystyrene particles). In kind it is biochemical. Particulars: for inhibition at 100 µM: HIV-1 dose 100.0 μM; for inhibition at 3.3 µM: HIV-1 dose 3.3 μM; for inhibition at 10 µM: HIV-1 dose 10.0 μM; for inhibition at 30 µM: HIV-1 dose 30.0 μM. The method, then: The HIV protease screening assay is based on a fluorescently labeled substrate which can be resolved from nonlabeled cleavage product using avidin-polystyrene particles, 0.7-0.9 μm. The substrate is biotinylated at the amino terminal arginine and fluorescently labeled with fluorescein isothiocynate (FITC) at the carboxyl terminal lysine. This assay has been employed to detect novel, nonpeptidic inhibitors of HIV-1 protease. Substrate (20 μl of 0.2 μM), sample (10 μl of desired concentraion), and enzyme (10 μl of 0.1 μM) are added to a 96 well pandex plate. The assay is run in 0.1 M sodium acetate buffer at pH 5.5 in the presence of 1.0 M sodium chloride and 0.05% NP-40 and incubated in the dark for one hour at room temperature. Avidin coated polystyrene beads (40 μl of 0.1% (w/v)) are added and the incubation is continued in the dark for an additional half hour. The labeled cleavage product is separated from the unreacted substrate via filtration and is read on the IDEXX Screen Machine. (IDEXX Corporation--Portland, Me.) The data are analyzed by appropriate computer algorithms to ascertain percent inhibition values.
The Activity Table showing the results of the HIV Protease Inhibitory Assay appears below in TABLE 1. The table has three columns, the left column provides the code number of the compound for easy cross reference to structure tables and detailed procedures, the middle column provides the concentration of test compound and the column on the right provides the percent inhibition.

On to `O=C1OC2(CCCC2)C(O)=C1C(c1ccccc1)C1CC1` (stereo not drawn) [CX-1, 1-Oxaspiro[4.4]non-3-en-2-one, 3-(cyclopropylphenylmethyl)-4-hydroxy-], for which the inhibition at 100 µM was found to be 109%. Besides, the inhibition at 3.7 µM (HIV-1 dose 3.7 μM) was 109%. The inhibition at 11 µM (HIV-1 dose 11.0 μM) came to 115%.

Regarding `O=C1OC2(CCCCC2Cc2ccccc2)C(O)=C1C(c1ccccc1)C1CC1` (stereo not drawn) [IX-7, 1-Oxaspiro[4.5]dec-3-en-2-one, 3-(cyclo-propylphenylmethyl)4-hydroxy-6--(2-phenylmethyl)-], the “HIV-1 Protease % Inhibition” value runs as follows: (test compound concentration 3.3 μM) 102.85%; (test compound concentration 10.0 μM) 99.7%; (test compound concentration 30.0 μM) 95.76%.

For `CCCC1(CCC)OC(=O)C(C(c2cccc(NC(=O)OCc3ccccc3)c2)C2CC2)=C1O` (stereo not drawn) [IX-32, Carbamic acid, (3-(cyclopropyl(2,5-dihydro-4-hydroxy-2-oxo-5,5-dipropyl-3-furanyl)methyl)phenyl)-, phenylmethyl ester], the inhibition at 3.3 µM is 100%, the inhibition at 10 µM came out at 106% and the inhibition at 30 µM came out at 111%.

`CCC(CC)C1OC(=O)C(C(c2ccccc2)C2CC2)=C1O` (stereo not drawn) [GX-8, 2(5H)-Furanone, 3-(cyclopropylphenylmethyl)-5-(1-ethylpropyl)-4-hydroxy-]: the inhibition at 3.3 µM came to 85.9%, the inhibition at 10 µM turned out to be 104% and the inhibition at 30 µM was 84.3%.

Take `CC(C)C1(CCCc2ccccc2)OC(=O)C(C(c2ccccc2)C2CC2)=C1O` (stereo not drawn) [DX-17, 2(5H)-Furanone, 3-(cyclopropylphenylmethyl)-4-hydroxy-5-(1-methylethyl)-5-(3--phenylpropyl)-]: the inhibition at 3.3 µM is 103%, the inhibition at 10 µM was 97.6% and the inhibition at 30 µM came out at 96%.

For the compound `CCCC1(CCC)OC(=O)C(C(CC)c2cccc([N+](=O)[O-])c2)=C1O` (stereo not drawn) [IX-2, 2(5H)-Furanone, 4-hydroxy-3-(1-(3-nitrophenyl)propyl)-5,5-dipropyl-], the inhibition at 3.3 µM was found to be 102%, the inhibition at 10 µM came to 113% and the inhibition at 30 µM was determined as 102%.

In the case of `CC(CCc1ccccc1)C1OC(=O)C(C(c2ccccc2)C2CC2)=C1O` (stereo not drawn) [GX-3, 2(5H)-Furanone, 3-(cyclopropylphenylmethyl)-4-hydroxy-5-(1-methyl-3-phenyl-propyl)-], the inhibition at 3.3 µM came out at 67.2%, the inhibition at 10 µM was determined as 84.7% and the inhibition at 30 µM was 87.4%.

Regarding `CCC1CCCCC12OC(=O)C(C(c1ccccc1)C1CC1)=C2O` (stereo not drawn) [IX-34, 1-Oxaspiro[4.5]dec-3-en-2-one, 3-(cyclopropylphenylmethyl)-4-hydroxy-6-ethyl-], the inhibition at 3.3 µM worked out at 97%, the inhibition at 10 µM came to 98.1% and the inhibition at 30 µM is 93.3%.

Turning to `CCCC1(CCC)OC(=O)C(C(c2cccc(NS(=O)(=O)c3ccc4ccccc4n3)c2)C2CC2)=C1O` (stereo not drawn) [IX-38], the inhibition at 3.3 µM came to 83%, the inhibition at 10 µM was found to be 85% and the inhibition at 30 µM was 84.8%.

With `CCCC1(CCC)OC(=O)C(C(c2cccc(NS(=O)(=O)c3cccc4ccccc34)c2)C2CC2)=C1O` (stereo not drawn) [IX-19], the inhibition at 3.3 µM came out at 103%, the inhibition at 10 µM was found to be 126% and the inhibition at 30 µM is 105%.

On to `CCCCC1OC(=O)C(C(c2ccccc2)C2CC2)=C1O` (stereo not drawn) [BX-11, 2(5H)-Furanone, 5-butyl-3-(cyclopropylphenylmethyl)-4-hydroxy-], for which the inhibition at 3.3 µM was found to be 45.1%, the inhibition at 10 µM stood at 78.3% and the inhibition at 30 µM amounted to 93.4%.

Consider `CC(C)C(C1=C(O)C(CCCc2ccccc2)OC1=O)c1ccccc1` (stereo not drawn) [FX-4, 2(5H)-Furanone, 4-hydroxy-3-(2-methyl-1-phenylpropyl)-5-(3-phenylpropyl)-], for which the inhibition at 3.3 µM is 56.6%, the inhibition at 10 µM worked out at 84.4% and the inhibition at 30 µM came out at 96.5%.

For the compound `O=C1OC(Cc2ccccc2)(Cc2ccccc2)C(O)=C1C(c1cccc(NS(=O)(=O)c2cccc3cccnc23)c1)C1CC1` (stereo not drawn) [IX-46, 8 Quinolinesulfonamide, N-(3-(cyclopropyl-(5,5-dibenzyl-4-hydroxy-2-oxo-2,5-dihydro-3-furanyl)methyl)phenyl)-], the inhibition at 3.3 µM is 90.3%, the inhibition at 10 µM came to 87% and the inhibition at 30 µM worked out at 81.7%.

Consider `CC(C)(C)C(C1=C(O)C(CCCc2ccccc2)OC1=O)c1ccccc1` (stereo not drawn) [FX-5, 2(5H)-Furanone, 3-(2,2-dimethyl-1-phenylpropyl)-4-hydroxy-5-(3-phenyl-propyl)-], for which the inhibition at 3.3 µM amounted to 61.9%, the inhibition at 10 µM was 84.4% and the inhibition at 30 µM came to 84.3%.

With `O=C1OC2(CCCCCC2)C(O)=C1C(c1ccccc1)C1CC1` (stereo not drawn) [IX-8, 1-Oxaspiro[4.6]undec-3-en-2-one, 3-(cyclo-propylphenylmethyl)-4-hydroxy-], the inhibition at 3.3 µM turned out to be 104%, the inhibition at 10 µM was found to be 108% and the inhibition at 30 µM worked out at 104%.

In the case of `CCC(C1=C(O)C(Cc2ccccc2)OC1=O)c1ccccc1` (stereo not drawn) [BX-9, 2(5H)-Furanone, 4-hydroxy-5-(phenylmethyl)-3-(1-phenylpropyl)-], the inhibition at 3.3 µM was determined as 50.1%, the inhibition at 10 µM turned out to be 75.1% and the inhibition at 30 µM was 86.1%.

Turning to `CCCC1(CCC)OC(=O)C(C(Cc2ccccc2)c2cccc(NS(=O)(=O)c3ccc(C#N)cc3)c2)=C1O` (stereo not drawn) [IX-39, Benzenesulfonamide, 4-cyano-N-(3-(1-(4-hydroxy-2-oxo-5,5-dipropyl-2,5-dihydro-furan-3-yl)-2-phenyl-ethyl)-phenyl)-], the inhibition at 3.3 µM was 76.8%, the inhibition at 10 µM came to 78.1% and the inhibition at 30 µM was determined as 106%.

On to `O=C1OC(C(O)CCc2ccccc2)C(O)=C1C(c1ccccc1)C1CC1` (stereo not drawn) [BX-8, 2(5H)-Furanone, 3-(cyclopropylphenylmethyl)-4-hydroxy-5-(1-hydroxy-3--phenylpropyl)-], for which the inhibition at 3.3 µM amounted to 51%, the inhibition at 10 µM was determined as 73.3% and the inhibition at 30 µM amounted to 78.2%.

In the case of `O=C1OC(CCCc2ccccc2)(CCCc2ccccc2)C(O)=C1C(c1ccccc1)C1CC1` (stereo not drawn) [DX-13, 2(5H)-Furanone, 3-(cyclopropylphenylmethyl)-4-hydroxy-5,5-bis(3-phenyl-propyl)-], the inhibition at 3.3 µM was 85%, the inhibition at 10 µM was 102% and the inhibition at 30 µM was 106%.

Regarding `C=CCC1(CCCc2ccccc2)OC(=O)C(C(c2ccccc2)C2CC2)=C1O` (stereo not drawn) [DX-16, 2(5H)-Furanone, 3-(cyclopropylphenylmethyl)-4-hydroxy-5-(3-phenyl-propyl)-5-(2-propenyl)-], the inhibition at 3.3 µM came to 114%, the inhibition at 10 µM came to 115% and the inhibition at 30 µM was 118%.

Consider `CCCC1(CCCc2ccccc2)OC(=O)C(C(c2ccccc2)C2CC2)=C1O` (stereo not drawn) [DX-1, 2(5H)-Furanone, 3-(cyclopropylphenylmethyl)-4-hydroxy-5-(3-phenyl-propyl)-5-propyl-], for which the inhibition at 3.3 µM stood at 108%, the inhibition at 10 µM stood at 106% and the inhibition at 30 µM amounted to 105%.

With `O=C1OC(CCC2CCCCC2)C(O)=C1C(c1ccccc1)C1CC1` (stereo not drawn) [BX-5, 2(5H)-Furanone, 5-(2-cyclohexylethyl)-3-(cyclopropylphenylmethyl)-4-hydroxy-], the inhibition at 10 µM came out at 61.2% and the inhibition at 100 µM worked out at 71.5%. Besides, the inhibition at 1 µM (HIV-1 dose 1.0 μM) turned out to be 12.6%.

Values taken from patent US5977169A, “Substituted tetronic acids useful for treating HIV and other retroviruses” (priority 1997, dated 1999).
